Tests used:
Type in all cases: cell-based
[1] = biological target: T1, C-C chemokine receptor type 1 (Homo sapiens, UniProt P32246); assay: Concentration required for 50% inhibition of [125I]eotaxin binding to human CCR1 receptor expressed in CHO cells
T1 sequence (P32246 whole entry): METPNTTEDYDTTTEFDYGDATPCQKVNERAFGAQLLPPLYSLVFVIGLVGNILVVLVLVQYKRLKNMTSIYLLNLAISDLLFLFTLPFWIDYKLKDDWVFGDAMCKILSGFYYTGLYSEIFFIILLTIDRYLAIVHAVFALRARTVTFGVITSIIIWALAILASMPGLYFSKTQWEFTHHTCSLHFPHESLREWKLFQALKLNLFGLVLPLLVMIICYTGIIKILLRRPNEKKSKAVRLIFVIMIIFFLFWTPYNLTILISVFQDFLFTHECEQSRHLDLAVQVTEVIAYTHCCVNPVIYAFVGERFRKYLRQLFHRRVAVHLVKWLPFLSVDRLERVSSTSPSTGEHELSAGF

[2] = biological target: T2, C-C chemokine receptor type 3 (Homo sapiens, UniProt P51677); assay: Concentration required for 50% inhibition of [125I]eotaxin binding to human CCR3 receptor expressed in CHO cells
T2 sequence (P51677 whole entry): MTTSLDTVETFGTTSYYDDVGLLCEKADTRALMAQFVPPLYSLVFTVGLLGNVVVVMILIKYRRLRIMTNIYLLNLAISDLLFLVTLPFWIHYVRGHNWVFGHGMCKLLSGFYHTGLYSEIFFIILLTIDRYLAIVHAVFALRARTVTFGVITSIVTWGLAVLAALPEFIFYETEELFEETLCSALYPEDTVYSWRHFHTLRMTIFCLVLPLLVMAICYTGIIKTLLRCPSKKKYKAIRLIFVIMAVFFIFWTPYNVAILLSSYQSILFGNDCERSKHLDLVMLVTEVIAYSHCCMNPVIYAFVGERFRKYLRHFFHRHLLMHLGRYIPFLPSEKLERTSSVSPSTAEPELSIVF

[3] = biological target: T3, C-C chemokine receptor type 3 (Homo sapiens) (UniProt P51677); assay: Percent inhibition of [125I]eotaxin binding to human CCR3 receptor expressed in CHO cells at 1 uM
T3 sequence (whole entry): T2 sequence (P51677 whole entry)

Structure (SMILES) | IC50 [1] [nM] | IC50 [2] [nM] | inhibition [3] [%]
O=C(CSc1nc2ccccc2s1)NCC1CCCN(Cc2ccccc2)C1 (stereo not given) | 4200 | 1000 | 
CCOC(=O)c1ccc2nc(SCC(=O)NC3CCN(Cc4ccc(Cl)c(Cl)c4)CC3)sc2c1 | > 10000 | 48 | 
CCCN1CCCC(CNC(=O)CSc2nc3ccccc3s2)C1 (stereo not given) |  |  | 30
O=C(CSc1nc2ccccc2s1)NCC1CCCN(CC2CCCCC2)C1 (stereo not given) |  | 1000 | 
O=C(CSc1nc2ccccc2s1)NCC1CCCN(Cc2ccc3ccccc3c2)C1 (stereo not given) |  |  | 5
O=C(CSc1nc2ccccc2s1)NC1CCN(Cc2cccc(Cl)c2)CC1 | > 10000 | 280 | 
Nc1ccc2nc(SCC(=O)NC3CCN(Cc4ccc(Cl)c(Cl)c4)CC3)sc2c1 | 1900 | 2.3 | 
CCOc1ccc2nc(SCC(=O)NC3CCN(Cc4ccc(Cl)c(Cl)c4)CC3)sc2c1 | 3600 | 20 | 
O=C(CSc1nc2ccccc2s1)NC1CCN(Cc2ccccc2)CC1 | 7100 | 750 | 
O=C(CSc1nc2ccccc2s1)NCC1CCCN(Cc2cccc3ccccc23)C1 (stereo not given) |  |  | 15
O=C(CSc1nc2ccccc2s1)NCC1CCCN(Cc2cccnc2)C1 (stereo not given) |  |  | 0
O=C(CSc1nc2ccccc2s1)NCC1CCCN(CCc2ccccc2)C1 (stereo not given) |  |  | 0
O=C(CSc1nc2ccccc2s1)NCC1CCCN(Cc2ccncc2)C1 (stereo not given) |  |  | 0
O=C(CSc1nc2ccccc2s1)NC1CCN(Cc2ccc(Cl)c(Cl)c2)CC1 | 450 | 32 | 
O=C(CSc1nc2ccccc2s1)NC1CCN(Cc2ccc(Cl)cc2)CC1 | 260 | 79 | 
CCCCCN1CCCC(CNC(=O)CSc2nc3ccccc3s2)C1 (stereo not given) |  |  | 0
O=C(CSc1nc2ccccc2s1)NCC1CCCN(Cc2nccs2)C1 (stereo not given) |  |  | 0
